Experimental data as given in ChEMBL document CHEMBL1201862, “PubChem BioAssay data set” (2004).
Activity calls are given as the source filed them.

Assays:
[1] = HEp-2 cell cytotoxicity, dose response, cytotoxicity control for RSV inhibitor project, HTS (AID 2410); type: functional; details: human respiratory syncytial virus
Protein skinhead-1 = biological target: T1, Protein skinhead-1 (Caenorhabditis elegans, UniProt P34707); type: functional
T1 sequence (P34707 whole entry): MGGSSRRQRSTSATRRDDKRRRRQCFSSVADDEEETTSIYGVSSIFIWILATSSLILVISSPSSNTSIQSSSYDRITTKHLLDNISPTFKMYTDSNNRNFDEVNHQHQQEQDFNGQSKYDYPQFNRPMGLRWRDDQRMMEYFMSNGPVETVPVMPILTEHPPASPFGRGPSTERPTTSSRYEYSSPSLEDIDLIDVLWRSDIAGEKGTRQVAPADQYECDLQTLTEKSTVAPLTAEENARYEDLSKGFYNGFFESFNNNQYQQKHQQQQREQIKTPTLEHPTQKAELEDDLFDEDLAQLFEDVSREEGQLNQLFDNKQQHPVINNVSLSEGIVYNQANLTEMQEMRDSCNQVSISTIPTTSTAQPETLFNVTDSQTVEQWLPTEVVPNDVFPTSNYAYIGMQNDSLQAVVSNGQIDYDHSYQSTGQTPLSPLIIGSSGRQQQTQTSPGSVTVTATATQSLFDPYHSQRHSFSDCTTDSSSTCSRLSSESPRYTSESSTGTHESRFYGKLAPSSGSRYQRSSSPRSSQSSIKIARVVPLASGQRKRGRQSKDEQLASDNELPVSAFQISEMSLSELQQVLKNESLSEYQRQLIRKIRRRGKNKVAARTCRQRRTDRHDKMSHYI

Cytochrome P450 2C19 = Cytochrome P450 2C19 (Homo sapiens, UniProt P33261); assay: Cytochrome panel assay with activity outcomes. Panel member name: p450-cyp2c19 Compounds with AC50 equal or less than 10 uM are considered active; type: functional; details: read-out: AC50
Cytochrome P450 2C19, sequence (P33261 whole entry): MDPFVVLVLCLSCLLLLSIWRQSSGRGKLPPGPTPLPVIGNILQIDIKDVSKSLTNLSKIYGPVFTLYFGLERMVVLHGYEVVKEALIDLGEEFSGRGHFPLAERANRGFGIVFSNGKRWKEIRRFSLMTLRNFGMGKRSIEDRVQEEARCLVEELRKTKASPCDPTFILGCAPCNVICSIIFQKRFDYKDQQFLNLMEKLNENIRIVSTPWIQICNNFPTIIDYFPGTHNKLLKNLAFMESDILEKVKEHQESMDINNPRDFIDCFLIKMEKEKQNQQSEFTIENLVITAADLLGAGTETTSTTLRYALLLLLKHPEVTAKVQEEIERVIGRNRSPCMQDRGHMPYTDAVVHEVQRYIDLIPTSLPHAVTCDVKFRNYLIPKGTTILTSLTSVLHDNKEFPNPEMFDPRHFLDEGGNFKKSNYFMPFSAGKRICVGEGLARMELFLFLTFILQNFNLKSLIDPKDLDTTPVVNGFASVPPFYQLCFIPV

Cytochrome P450 1A2 = biological target: T2, Cytochrome P450 1A2 (Homo sapiens, UniProt P05177);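 further: PubChem cytochrome P450 panel assay, CYP1A2 panel member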
T2 sequence (P05177 whole entry): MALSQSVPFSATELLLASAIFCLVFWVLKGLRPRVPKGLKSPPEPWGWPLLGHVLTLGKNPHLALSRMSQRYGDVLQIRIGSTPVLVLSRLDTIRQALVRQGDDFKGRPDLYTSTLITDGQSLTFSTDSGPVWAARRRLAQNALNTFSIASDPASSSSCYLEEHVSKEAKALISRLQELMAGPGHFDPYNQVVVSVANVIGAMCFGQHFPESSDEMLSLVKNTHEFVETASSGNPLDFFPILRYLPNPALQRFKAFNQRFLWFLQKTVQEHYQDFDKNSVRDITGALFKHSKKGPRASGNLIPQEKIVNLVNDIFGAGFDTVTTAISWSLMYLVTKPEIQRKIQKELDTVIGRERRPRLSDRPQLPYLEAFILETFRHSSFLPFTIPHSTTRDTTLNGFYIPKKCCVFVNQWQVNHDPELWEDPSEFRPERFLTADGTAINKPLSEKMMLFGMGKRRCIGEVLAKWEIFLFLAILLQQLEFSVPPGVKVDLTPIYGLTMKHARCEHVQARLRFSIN

Cytochrome P450 2C9 = Cytochrome P450 2C9 (Homo sapiens, UniProt P11712)
Cytochrome P450 2C9, sequence (P11712 whole entry): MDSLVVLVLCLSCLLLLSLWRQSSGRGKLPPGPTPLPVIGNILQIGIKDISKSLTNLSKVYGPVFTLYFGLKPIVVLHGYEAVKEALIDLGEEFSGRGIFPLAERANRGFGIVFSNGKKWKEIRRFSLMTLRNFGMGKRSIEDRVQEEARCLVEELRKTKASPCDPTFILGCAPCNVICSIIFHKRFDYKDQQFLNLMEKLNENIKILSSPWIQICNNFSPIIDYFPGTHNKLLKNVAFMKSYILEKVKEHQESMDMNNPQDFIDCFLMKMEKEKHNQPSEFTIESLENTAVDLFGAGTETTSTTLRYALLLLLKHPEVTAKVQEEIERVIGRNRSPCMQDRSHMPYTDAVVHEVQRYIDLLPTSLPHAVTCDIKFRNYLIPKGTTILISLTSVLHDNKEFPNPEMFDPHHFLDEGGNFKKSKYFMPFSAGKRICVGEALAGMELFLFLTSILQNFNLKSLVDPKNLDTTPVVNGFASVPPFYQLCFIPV

[2] = biological target: T3, Rac GTPase-activating protein 1 (Homo sapiens, UniProt Q9H0H5); assay: MgcRacGAP GTPase-activating activity inhibitors, confirmation, biochemical, ADP Hunter fluorescence, primary and confirmatory (AID 624330); type: functional
T3 sequence (Q9H0H5 whole entry): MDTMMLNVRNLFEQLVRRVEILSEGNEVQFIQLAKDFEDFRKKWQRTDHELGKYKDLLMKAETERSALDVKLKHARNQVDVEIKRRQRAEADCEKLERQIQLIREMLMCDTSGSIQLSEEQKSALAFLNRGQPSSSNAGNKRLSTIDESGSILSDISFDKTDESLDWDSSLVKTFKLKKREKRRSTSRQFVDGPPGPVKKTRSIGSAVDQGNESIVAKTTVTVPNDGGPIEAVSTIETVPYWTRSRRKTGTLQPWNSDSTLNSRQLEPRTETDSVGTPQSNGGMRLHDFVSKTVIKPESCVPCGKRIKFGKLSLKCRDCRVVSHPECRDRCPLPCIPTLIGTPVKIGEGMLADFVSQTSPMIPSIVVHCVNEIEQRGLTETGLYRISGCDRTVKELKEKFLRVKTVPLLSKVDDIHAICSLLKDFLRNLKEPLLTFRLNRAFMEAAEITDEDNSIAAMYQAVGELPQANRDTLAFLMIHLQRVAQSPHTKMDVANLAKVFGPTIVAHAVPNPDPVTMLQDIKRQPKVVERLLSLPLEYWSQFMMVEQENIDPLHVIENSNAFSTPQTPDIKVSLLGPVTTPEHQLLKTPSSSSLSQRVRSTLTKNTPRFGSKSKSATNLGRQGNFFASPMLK

[3] = tested on: Streptococcus sp. 'group A'; assay: growth inhibition of control SK(-) GAS strain, dose response, counter-screen for streptokinase expression inhibitor project, luminescence, kanamycin, BacTiterGlo, confirmation (AID 1900); type: functional, organism-based
Streptokinase A = biological target: T4, Streptokinase A (Streptococcus pyogenes serotype M1, UniProt P10520); assay: S. pyogenes streptokinase expression inhibitors, potency, dose response, plasminogen activation absorbance, OD405 (AID 1914); type: functional, Streptococcus pyogenes M1 GAS;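 further: secreted streptokinase activity via plasminogen activation per viability signal from cell pellet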
T4 sequence (P10520 whole entry): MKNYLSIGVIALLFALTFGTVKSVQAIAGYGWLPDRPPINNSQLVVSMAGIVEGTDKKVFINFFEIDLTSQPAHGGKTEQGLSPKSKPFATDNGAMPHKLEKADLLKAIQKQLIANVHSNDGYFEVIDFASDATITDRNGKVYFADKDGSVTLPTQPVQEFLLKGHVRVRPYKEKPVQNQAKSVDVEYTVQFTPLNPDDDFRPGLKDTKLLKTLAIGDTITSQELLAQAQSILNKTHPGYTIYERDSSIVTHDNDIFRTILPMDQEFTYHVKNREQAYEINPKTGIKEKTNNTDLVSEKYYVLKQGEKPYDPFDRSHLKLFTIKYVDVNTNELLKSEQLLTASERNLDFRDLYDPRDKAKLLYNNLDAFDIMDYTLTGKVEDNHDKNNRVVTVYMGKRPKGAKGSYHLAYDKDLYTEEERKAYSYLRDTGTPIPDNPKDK

Streptococcus = assay: Group A Streptococcus viability loss, dose response, counter-screen for streptokinase expression inhibitor project, luminescence, BacTiterGlo (AID 1915); type: functional, organism-based;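 further: potency for reduction of bacterial viability or growth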
[4] = Luminescence Cell-Based Dose Response HTS to Identify Activators of Luciferase Translation or Activity in H4 […] Cells. [Related pubchem assays: 1829 (Project Summary), 1814 (Primary HTS)]; type: functional
H4 = assay: Luminescence Cell-Based Dose Response HTS to Identify Activators of 5'UTR Stem-Loop Driven Prion Protein mRNA Translation in H4 Neuroglioblastoma Cells. [Related pubchem assays: 1829 (Project Summary), 1814 (Primary HTS)]; type: functional; details: Homo sapiens
[5] = biological target: Luciferin 4-monooxygenase (Photinus pyralis, UniProt P08659); assay: firefly luciferase enzyme inhibitors, dose response, biochemical, luminescence (AID 1891)
Luciferin 4-monooxygenase, sequence (P08659 whole entry): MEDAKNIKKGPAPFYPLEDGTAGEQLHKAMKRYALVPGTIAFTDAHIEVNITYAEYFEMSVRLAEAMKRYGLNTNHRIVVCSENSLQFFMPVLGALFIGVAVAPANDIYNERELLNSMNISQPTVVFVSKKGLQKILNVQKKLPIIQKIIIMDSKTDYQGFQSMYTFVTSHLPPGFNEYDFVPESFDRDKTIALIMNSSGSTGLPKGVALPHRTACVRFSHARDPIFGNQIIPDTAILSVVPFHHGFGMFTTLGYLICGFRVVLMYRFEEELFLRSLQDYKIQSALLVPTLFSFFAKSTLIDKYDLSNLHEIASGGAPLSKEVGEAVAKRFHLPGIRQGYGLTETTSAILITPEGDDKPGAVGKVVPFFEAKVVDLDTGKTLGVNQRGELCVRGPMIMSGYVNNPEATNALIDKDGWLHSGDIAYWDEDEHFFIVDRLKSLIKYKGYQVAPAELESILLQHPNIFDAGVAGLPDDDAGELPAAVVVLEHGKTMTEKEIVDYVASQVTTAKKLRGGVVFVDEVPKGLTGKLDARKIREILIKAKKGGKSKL

[6] = Luminescence Cell-Based Dose Confirmation HTS to Identify Inhibitors of Platelet Dense Granule Release. [Related pubchem assays: 1663 (Primary HTS), 1678 (Summary of Project)]; type: functional

With CC(=O)c1ccc(NCC2COc3ccccc3O2)c([N+](=O)[O-])c1 (stereo unspecified) the CC50 [1] was > 50 µM (active).
In the case of Cc1[nH]c2ccccc2c1SCc1ccccc1, the IC50 (Protein skinhead-1) is reported as 42.6 µM (active).
For O=C(c1ccncc1)N1CCC2(CC1)CCN(C(c1ccccc1)c1ccccc1)CC2, the AC50 (Cytochrome P450 2C19) was 39.8 µM (inconclusive), the AC50 (Cytochrome P450 1A2) was 12.6 µM (inconclusive) and the AC50 (Cytochrome P450 2C9) was 12.6 µM (inconclusive).
In the case of CCCS(=O)(=O)N1CCN(C2CCC(C)CC2)CC1 (stereo unspecified), the IC50 [2] is reported as 232 µM (active).
For O=C(Nc1ccc2c(c1)CCC2)c1ccc(Cl)nc1, the CC50 [1] was 36.7 µM (active).
In the case of Cc1ccc2c(c1)CCCN2C(=O)CSc1ccccc1, the CC50 [1] is reported as 47.2 µM (active).
In the case of COc1ccc(C2CC(c3ccccc3)=NN2C(=O)c2cccs2)cc1 (stereo unspecified), the EC50 [3] is reported as 4.88 µM (active), the EC50 (Streptokinase A) is reported as > 150 µM (not active) and the EC50 (Streptococcus) is reported as 12.4 µM (active). The IC50 (Protein skinhead-1) was > 100 µM (inactive).
In the case of COc1ccc(NCCC(O)c2ccc(Cl)cc2)cc1 (stereo unspecified), the IC50 [2] is reported as 29.1 µM (active).
In the case of CCOC(=O)C1CCCN(C2=NC(=O)/C(=C/c3ccc(O)c(OCC)c3)S2)C1 (stereo unspecified), the IC50 [2] is reported as 26.5 µM (active).
In the case of O=S(=O)(c1ccccc1C(F)(F)F)N1CCC(c2nc(O)c3nnn(Cc4cccc(F)c4)c3n2)CC1, the CC50 [1] is reported as 32.2 µM (active).
In the case of O=C1C=C(c2ccc3ncccc3c2)C[C@@H](c2ccc(F)cc2)C1, the CC50 [1] is reported as 30 µM (active).
For COc1ccc2nc(-c3ccc(Cl)cc3)cc(C(=O)O)c2c1, the CC50 [1] was 19.9 µM (active).
For CC(=O)N1CCN(c2ccc(NCc3ccc(C(C)C)cc3)cc2)CC1, the IC50 (Protein skinhead-1) was > 100 µM (inactive) and the IC50 [2] was 10.4 µM (active).
For Fc1ccc(N2CCN(c3cnc4ccccc4n3)CC2)cc1, the EC50 [4] was 0.244 µM (active), the EC50 (H4) was 12.8 µM (active) and the IC50 (Protein skinhead-1) was 72.8 µM (inactive).
For CSCC[C@H](N)C(=O)N1CCC(C(=O)N[C@@H](Cc2c[nH]c3ccccc23)C(=O)O)CC1, the IC50 (Protein skinhead-1) was > 100 µM (inactive).
With CC(C)C(c1nnnn1Cc1ccco1)N1CCN(C2CCCC2)CC1 (stereo unspecified) the IC50 (Protein skinhead-1) was > 100 µM (inactive).
In the case of Cc1cc(Nc2ccccc2C(=O)O)n(-c2cccc(Cl)c2)n1, the CC50 [1] is reported as 30.9 µM (active).
With O=C(NCc1ccco1)c1sc2cc(Cl)ccc2c1Cl the IC50 (Protein skinhead-1) was > 100 µM (inactive).
In the case of CCc1ccc(Nc2oc(C)cc(=O)c2C(C)=O)cc1, the IC50 (Protein skinhead-1) is reported as > 100 µM (inactive).
For CN1/C(=C\C(=O)Nc2cccc(Cl)c2)C(C)(C)c2ccccc21, the IC50 (Protein skinhead-1) was > 100 µM (inactive).
In the case of COc1ccccc1C(=O)Nc1ccc2c(c1)nc(CCNC(=O)c1ccccc1)n2C, the IC50 (Protein skinhead-1) is reported as > 100 µM (inactive).
With O=c1cc(CN2CCOCC2)c2ccc(O)c(O)c2o1 the IC50 [2] was 82.7 µM (active).
With CCCCCOC(=O)c1ccc(NC(=O)c2ccco2)cc1 the IC50 (Protein skinhead-1) was > 100 µM (inactive).
In the case of CC1=N/C(=C\c2ccc([N+](=O)[O-])cc2)C(=O)N1c1ccc(Br)c(C)c1, the AC50 (Cytochrome P450 1A2) is reported as 5.62 µM (inconclusive) and the AC50 (Cytochrome P450 2C9) is reported as 7.94 µM (inconclusive).
For CC(C)CCNC(=O)NC(=O)COc1c(F)c(F)cc(F)c1F, the IC50 (Protein skinhead-1) was > 100 µM (inactive).
For O=C(c1cccc(F)c1)N1CCN(C2CCCCC2)CC1, the IC50 [2] was 116 µM (active).
In the case of CC1Cc2ccccc2N1S(=O)(=O)c1cccc(C(=O)NC2CC2)c1 (stereo unspecified), the CC50 [1] is reported as > 50 µM (active).
In the case of O=S(=O)(Cc1ccc(Cl)cc1)Oc1ccc(Cl)cc1, the IC50 (Protein skinhead-1) is reported as > 100 µM (inactive).
In the case of COc1ccc(NS(=O)(=O)c2cccc(C(=O)NN=Cc3ccc(O)c(OC)c3)c2)cc1, the IC50 [2] is reported as 79.4 µM (active).
With Cn1nccc1C(=O)N1CCC(Cc2ccccc2)CC1 the IC50 (Protein skinhead-1) was > 100 µM (inactive).
For C/C(=N\NC(=O)C1CC1)c1ccc(Cl)c(Cl)c1, the CC50 [1] was > 50 µM (active).
In the case of COc1cc(/C=N/NC(=O)/C(=C/c2ccccc2)CCO)ccc1O, the EC50 [5] is reported as > 112 µM (not active), the EC50 [6] is reported as 11.1 µM (active) and the IC50 [2] is reported as 35.7 µM (active).
In the case of CCOC(=O)Nc1ccc(NCc2ccc(F)cc2)nc1N [FLUPIRTINE], the AC50 (Cytochrome P450 2C19) is reported as 25.1 µM (inconclusive), the AC50 (Cytochrome P450 1A2) is reported as 39.8 µM (inconclusive) and the AC50 (Cytochrome P450 2C9) is reported as 25.1 µM (inconclusive).
